Results published in ChEMBL document CHEMBL3885881, “DrugMatrix”.

Species: Rattus norvegicus
Experiment: DrugMatrix - Regimen: Daily Repeat
Type: toxicity, organism-based, Sprague-Dawley
Set-up: regimen Daily Repeat, gender Male, age 6-8 weeks
Conditions: in vivo, iv, vehicle 100 % SALINE; for ABSOLUTE BASOPHIL / ABSOLUTE EOSINOPHIL / ABSOLUTE LYMPHOCYTE / ABSOLUTE MONOCYTE / ABSOLUTE SEGMENTED NEUTROPHIL / BASOPHIL / EOSINOPHIL / ERYTHROCYTE COUNT / HEMATOCRIT / HEMOGLOBIN / LEUKOCYTE COUNT / LYMPHOCYTE / MEAN CORPUSCULAR HEMOGLOBIN / MEAN CORPUSCULAR HEMOGLOBIN CONCENTRATION / MEAN CORPUSCULAR VOLUME / MONOCYTE / NEUTROPHIL / NUCLEATED RED BLOOD CELLS / PLATELET COUNT: tissue Blood; for ALANINE AMINOTRANSFERASE / ALBUMIN / ALKALINE PHOSPHATASE / ASPARTATE AMINOTRANSFERASE / BLOOD UREA NITROGEN / CARBON DIOXIDE / CHLORIDE / CHOLESTEROL / CREATINE PHOSPHOKINASE / CREATININE / GLUCOSE / LACTATE DEHYDROGENASE / LIPASE / PHOSPHORUS / POTASSIUM / SODIUM / TOTAL BILIRUBIN / TOTAL PROTEIN / URIC ACID: tissue Plasma
[1] = 2 mg/kg, 72 h, dose level High, time 3 day
[2] = 2 mg/kg, 120 h, dose level High, time 5 day
[3] = […], 72 h, dose 0.21 mg/Kg, dose level Low, time 3 day
[4] = […], 120 h, dose 0.21 mg/Kg, dose level Low, time 5 day

O=C1c2c(O)ccc(O)c2C(=O)c2c(NCCNCCO)ccc(NCCNCCO)c21 [MITOXANTRONE]
ABSOLUTE BASOPHIL [1]: 0 CELLS/uL | ABSOLUTE EOSINOPHIL [1]: 0 CELLS/uL | ABSOLUTE LYMPHOCYTE [1]: 1529.67 CELLS/uL | ABSOLUTE MONOCYTE [1]: 0 CELLS/uL | ABSOLUTE SEGMENTED NEUTROPHIL [1]: 137 CELLS/uL | BASOPHIL [1]: 0% | EOSINOPHIL [1]: 0% | ERYTHROCYTE COUNT [1]: 5.38 x10E6/uL | HEMATOCRIT [1]: 34.37% | HEMOGLOBIN [1]: 12.83 G/DL | LEUKOCYTE COUNT [1]: 1.67 x10E3/uL | LYMPHOCYTE [1]: 91.67% | MEAN CORPUSCULAR HEMOGLOBIN [1]: 23.9 pg | MEAN CORPUSCULAR HEMOGLOBIN CONCENTRATION [1]: 37.37 G/DL | MEAN CORPUSCULAR VOLUME [1]: 63.87 fL | MONOCYTE [1]: 0% | NEUTROPHIL [1]: 8.33% | NUCLEATED RED BLOOD CELLS [1]: 0 /100WBC | PLATELET COUNT [1]: 1484 x10E3/uL | ALANINE AMINOTRANSFERASE [1]: 42.67 u/L | ALBUMIN [1]: 4.43 G/DL | ALKALINE PHOSPHATASE [1]: 444 u/L | ASPARTATE AMINOTRANSFERASE [1]: 64 u/L | BLOOD UREA NITROGEN [1]: 15.67 mg/dL | CARBON DIOXIDE [1]: 23 mmol/L | CHLORIDE [1]: 104.67 MEQ/L | CHOLESTEROL [1]: 79.33 mg/dL | CREATINE PHOSPHOKINASE [1]: 220.67 u/L | CREATININE [1]: 0.17 mg/dL | GLUCOSE [1]: 180.33 mg/dL | LACTATE DEHYDROGENASE [1]: 145 u/L | LIPASE [1]: 10 u/L | PHOSPHORUS [1]: 12.2 mg/dL | POTASSIUM [1]: 5.98 MEQ/L | SODIUM [1]: 146.2 MEQ/L | TOTAL BILIRUBIN [1]: 0.13 mg/dL | TOTAL PROTEIN [1]: 6.1 G/DL | URIC ACID [1]: 2.67 mg/dL | ABSOLUTE BASOPHIL [2]: 0 CELLS/uL | ABSOLUTE EOSINOPHIL [2]: 0 CELLS/uL | ABSOLUTE LYMPHOCYTE [2]: 1225 CELLS/uL | ABSOLUTE MONOCYTE [2]: 0 CELLS/uL | ABSOLUTE SEGMENTED NEUTROPHIL [2]: 8.33 CELLS/uL | BASOPHIL [2]: 0% | EOSINOPHIL [2]: 0% | ERYTHROCYTE COUNT [2]: 5.82 x10E6/uL | HEMATOCRIT [2]: 35.23% | HEMOGLOBIN [2]: 13.37 G/DL | LEUKOCYTE COUNT [2]: 1.23 x10E3/uL | LYMPHOCYTE [2]: 99.33% | MEAN CORPUSCULAR HEMOGLOBIN [2]: 23.07 pg | MEAN CORPUSCULAR HEMOGLOBIN CONCENTRATION [2]: 37.97 G/DL | MEAN CORPUSCULAR VOLUME [2]: 60.73 fL | MONOCYTE [2]: 0% | NEUTROPHIL [2]: 0.67% | NUCLEATED RED BLOOD CELLS [2]: 0 /100WBC | PLATELET COUNT [2]: 946 x10E3/uL | ALANINE AMINOTRANSFERASE [2]: 32.33 u/L | ALBUMIN [2]: 3.37 G/DL | ALKALINE PHOSPHATASE [2]: 255.33 u/L | ASPARTATE AMINOTRANSFERASE [2]: 47.67 u/L | BLOOD UREA NITROGEN [2]: 15.67 mg/dL | CARBON DIOXIDE [2]: 29.33 mmol/L | CHLORIDE [2]: 105 MEQ/L | CHOLESTEROL [2]: 107 mg/dL | CREATINE PHOSPHOKINASE [2]: 271.67 u/L | CREATININE [2]: 0.12 mg/dL | GLUCOSE [2]: 142.33 mg/dL | LACTATE DEHYDROGENASE [2]: 141.33 u/L | LIPASE [2]: 9.67 u/L | PHOSPHORUS [2]: 11.97 mg/dL | POTASSIUM [2]: 6.74 MEQ/L | SODIUM [2]: 146.57 MEQ/L | TOTAL BILIRUBIN [2]: 0.1 mg/dL | TOTAL PROTEIN [2]: 5.2 G/DL | URIC ACID [2]: 1.33 mg/dL | ABSOLUTE BASOPHIL [3]: 0 CELLS/uL | ABSOLUTE EOSINOPHIL [3]: 34.67 CELLS/uL | ABSOLUTE LYMPHOCYTE [3]: 7414.67 CELLS/uL | ABSOLUTE MONOCYTE [3]: 92.67 CELLS/uL | ABSOLUTE SEGMENTED NEUTROPHIL [3]: 224.67 CELLS/uL | BASOPHIL [3]: 0% | EOSINOPHIL [3]: 0.33% | ERYTHROCYTE COUNT [3]: 5.52 x10E6/uL | HEMATOCRIT [3]: 34.13% | HEMOGLOBIN [3]: 12.87 G/DL | LEUKOCYTE COUNT [3]: 7.77 x10E3/uL | LYMPHOCYTE [3]: 96% | MEAN CORPUSCULAR HEMOGLOBIN [3]: 23.37 pg | MEAN CORPUSCULAR HEMOGLOBIN CONCENTRATION [3]: 37.73 G/DL | MEAN CORPUSCULAR VOLUME [3]: 61.87 fL | MONOCYTE [3]: 1% | NEUTROPHIL [3]: 2.67% | NUCLEATED RED BLOOD CELLS [3]: 0 /100WBC | PLATELET COUNT [3]: 1537 x10E3/uL | ALANINE AMINOTRANSFERASE [3]: 46 u/L | ALBUMIN [3]: 4.5 G/DL | ALKALINE PHOSPHATASE [3]: 370.67 u/L | ASPARTATE AMINOTRANSFERASE [3]: 75 u/L | BLOOD UREA NITROGEN [3]: 14.33 mg/dL | CARBON DIOXIDE [3]: 24 mmol/L | CHLORIDE [3]: 103.33 MEQ/L | CHOLESTEROL [3]: 77.33 mg/dL | CREATINE PHOSPHOKINASE [3]: 192 u/L | CREATININE [3]: 0.24 mg/dL | GLUCOSE [3]: 163 mg/dL | LACTATE DEHYDROGENASE [3]: 207.67 u/L | LIPASE [3]: 9.67 u/L | PHOSPHORUS [3]: 13.57 mg/dL | POTASSIUM [3]: 7.01 MEQ/L | SODIUM [3]: 145.1 MEQ/L | TOTAL BILIRUBIN [3]: 0.23 mg/dL | TOTAL PROTEIN [3]: 6.23 G/DL | URIC ACID [3]: 2.6 mg/dL | ABSOLUTE BASOPHIL [4]: 0 CELLS/uL | ABSOLUTE EOSINOPHIL [4]: 26.67 CELLS/uL | ABSOLUTE LYMPHOCYTE [4]: 5180 CELLS/uL | ABSOLUTE MONOCYTE [4]: 42.67 CELLS/uL | ABSOLUTE SEGMENTED NEUTROPHIL [4]: 217.33 CELLS/uL | BASOPHIL [4]: 0% | EOSINOPHIL [4]: 0.67% | ERYTHROCYTE COUNT [4]: 5.12 x10E6/uL | HEMATOCRIT [4]: 32.83% | HEMOGLOBIN [4]: 12.5 G/DL | LEUKOCYTE COUNT [4]: 5.47 x10E3/uL | LYMPHOCYTE [4]: 94.33% | MEAN CORPUSCULAR HEMOGLOBIN [4]: 24.47 pg | MEAN CORPUSCULAR HEMOGLOBIN CONCENTRATION [4]: 38.1 G/DL | MEAN CORPUSCULAR VOLUME [4]: 64.27 fL | MONOCYTE [4]: 1% | NEUTROPHIL [4]: 4% | NUCLEATED RED BLOOD CELLS [4]: 0.33 /100WBC | PLATELET COUNT [4]: 1671.33 x10E3/uL | ALANINE AMINOTRANSFERASE [4]: 42.33 u/L | ALBUMIN [4]: 4.27 G/DL | ALKALINE PHOSPHATASE [4]: 328.67 u/L | ASPARTATE AMINOTRANSFERASE [4]: 67 u/L | BLOOD UREA NITROGEN [4]: 15 mg/dL | CARBON DIOXIDE [4]: 24.33 mmol/L | CHLORIDE [4]: 107.67 MEQ/L | CHOLESTEROL [4]: 77.67 mg/dL | CREATINE PHOSPHOKINASE [4]: 193.33 u/L | CREATININE [4]: 0.25 mg/dL | GLUCOSE [4]: 163.33 mg/dL | LACTATE DEHYDROGENASE [4]: 101 u/L | LIPASE [4]: 12 u/L | PHOSPHORUS [4]: 11.77 mg/dL | POTASSIUM [4]: 6.53 MEQ/L | SODIUM [4]: 146.7 MEQ/L | TOTAL BILIRUBIN [4]: 0.2 mg/dL | TOTAL PROTEIN [4]: 5.87 G/DL | URIC ACID [4]: 1.8 mg/dL
